Data published in patent US5506102A (priority 1993, dated 1996).

Experiments:
PR = settings: cited from earlier work
[1] = molecular target: T1, human progesterone receptor isoform PR-A (Homo sapiens, UniProt P06401); test: PR-A transactivation of MMTV-LUC reporter, transient transfection; format: cell-based; settings: 10^-7 M progesterone
T1 sequence (P06401 165-933): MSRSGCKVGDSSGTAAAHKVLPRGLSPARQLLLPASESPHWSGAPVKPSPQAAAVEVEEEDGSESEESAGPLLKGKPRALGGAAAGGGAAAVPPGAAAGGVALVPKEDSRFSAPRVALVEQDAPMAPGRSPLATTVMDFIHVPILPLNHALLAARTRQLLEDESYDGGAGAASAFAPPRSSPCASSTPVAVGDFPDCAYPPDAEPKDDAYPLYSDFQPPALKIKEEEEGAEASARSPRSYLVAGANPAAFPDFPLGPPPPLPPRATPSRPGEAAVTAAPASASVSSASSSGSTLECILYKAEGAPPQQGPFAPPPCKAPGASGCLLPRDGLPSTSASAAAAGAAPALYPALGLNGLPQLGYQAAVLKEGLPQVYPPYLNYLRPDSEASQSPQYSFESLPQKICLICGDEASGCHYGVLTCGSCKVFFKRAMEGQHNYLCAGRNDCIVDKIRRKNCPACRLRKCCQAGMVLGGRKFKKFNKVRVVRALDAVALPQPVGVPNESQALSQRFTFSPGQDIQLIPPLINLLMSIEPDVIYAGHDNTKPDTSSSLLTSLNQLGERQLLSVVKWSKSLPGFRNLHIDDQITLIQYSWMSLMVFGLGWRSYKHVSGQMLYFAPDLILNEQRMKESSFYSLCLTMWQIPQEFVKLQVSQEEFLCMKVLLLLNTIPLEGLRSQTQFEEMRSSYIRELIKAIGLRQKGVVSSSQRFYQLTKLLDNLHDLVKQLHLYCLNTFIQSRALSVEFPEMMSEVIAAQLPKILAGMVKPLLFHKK
Description: (§1) Cells were seeded in 12-well, 96-well or 10 cm tissue culture plates. […] 20 μg of DNA/ml of transfection buffer were used in each transfection reaction. In this mix, the concentration of the luciferase plasmids and that of the internal control plasmid pCH110 (Pharmacia, Inc.), which contains the gene for the β-galactosidase enzyme, remained constant ([…] of each plasmid DNA), while the receptor plasmid concentration varied as indicated for each experiment. Different amounts of receptor parental plasmid, pSV2-neo (Dr. Bert O'Malley, Baylor College of Medicine, Houston, Tex.) was included to keep constant the total amount of the SV40 enhancer vectors. pGEM4 plasmid DNA (Promega Biotech, Madison, Wis.) was added to balance the total DNA concentration to 20 g/reaction. For the 96-well plate experiments, transfections were performed on a Biomek 1000 Automated Laboratory Workstation (Beckman Instruments, Fullerton, Calif.).
(§2) Cells were seeded 24 hours prior to transfection in the fiat-bottom tissue culture plates ([…]) in phenol red-free DMEM containing 10% FCS. […] Using calcium phosphate co-precipitation, DNA solution was added dropwise with vortexing into an equal volume of 2X HBS pH 6.9 (280 mM NaCl. 50 mM HEPES, 1.5 mM Na2 HPO4) and precipitates were allowed to form for 20 minutes. Cells were transfected ( […] of DNA mix/well) for 6 hours and then washed with phosphate-bufferedsaline (PBS) to remove the precipitate. Cells were incubated for an additional 24 hours in phenol red-free medium containing 10% charcoal-treated FCS, with or without hormones as indicated in the text. Cell extracts were prepared as described by Berger et al., Supra, and assayed for luciferase and β-galactosidase activities. All determinations were performed in triplicates in at least two independent experiments, and were normalized for transfection efficiency by using β-galactosidase as an internal control.

[2] = tested on: PR-B (co-expressed with PR-A); test: PR-A repression of PR-B mediated MMTV-LUC transcription (co-transfection); format: cell-based, human; settings: for transcriptional repression: HeLa, FIG. 3B
Description: FIGS 3A-3B are a series of graphs showing CV-1 (FIG. 3A) or HeLa (FIG. 3B) cells that were transiently transfected with either 0.25 g of phPR-A or 0.25 g phPR-B alone, or 0.25 g phPR-B in the presence of increasing concentration of phPR-A together with […] of the MMTV-LUC reporter and […] of pCH110 as an internal control. […] The relative luciferase activity is calculated by dividing the normalized luciferase value at a given point by that obtained in the absence of transfected receptor or ligand. Data shown indicate the mean +/- average deviation from the mean of triplicate estimations;
as §1, §2

[3] = tested on: PR-B (co-expressed with PR-A587); test: Repression of PR-B mediated MMTV-LUC transcription by DNA binding mutant PR-A587, CV-1 cells; format: cell-based, human; settings: equimolar phPR-A587 and phPR-B DNA, 10^-7 M progesterone, FIG. 9
Description: The relative luciferase activity is calculated by dividing the normalized luciferase value at a given point by that obtained in the absence of transfected receptor or ligand.
as §1
Cells were seeded 24 hours prior to transfection in the fiat-bottom tissue culture plates ([…]) in phenol red-free DMEM containing 10% FCS. […]

[4] = tested on: glucocorticoid receptor (GR); test: GR transcriptional activity on MMTV-LUC, CV-1 cells, GR co-expressed with PR-B; format: cell-based; settings: progesterone and dexamethasone, FIG. 5B
Description: as §1
Cells were seeded 24 hours prior to transfection in the fiat-bottom tissue culture plates ([…]) in phenol red-free DMEM containing 10% FCS. […] Using calcium phosphate co-precipitation, DNA solution was added dropwise with vortexing into an equal volume of 2X HBS pH 6.9 (280 mM NaCl. 50 mM HEPES, 1.5 mM Na2 HPO4) and precipitates were allowed to form for 20 minutes. […]

Compound	effect on PR DNA binding (PR)	progesterone-induced activation of the MMTV promoter by PR-A ([1]; CV-1 cells, FIG. 2A)	maximal induction ([1]; HeLa cells, MMTV, 250 ng of transfected DNA, FIG. 2B)	activation of the MMTV promoter by PR-A ([1]; HepG2 cells, FIG. 2C)	recovery of PR-B mediated transcription ([2]; CV-1, PR-A/PR-B DNA ratio 1:5) [%]	recovery of PR-B mediated transcription ([2]; CV-1, PR-A/PR-B DNA ratio 1:25) [%]	inhibition of MMTV-LUC transcriptional activity ([2]; CV-1, equimolar concentrations of PR-A and PR-B)	transcriptional repression ([2]; 1:1 PR-A/PR-B DNA ratio) [%]	transcriptional repression ([2]; 1:5 PR-A/PR-B DNA ratio) [%]	transcriptional repression ([2]; 1:25 PR-A/PR-B DNA ratio) [%]	effect of coexpression of PR-A and PR-B on MMTV transcription ([2]; HepG2, data not shown)	IC50 ([2]; read-out: progesterone concentration required for half maximal inhibition, CV-1, PR-A mediated repression of PR-B, MMTV) [nM]	reduction of transcriptional activity of PR-B [3] [%]	effect of PR-B co-expression on GR function [4]
CC#C[C@]1(O)CC[C@H]2[C@@H]3CCC4=CC(=O)CCC4=C3[C@@H](c3ccc(C(C)=O)cc3)C[C@@]21C [ZK112993]	promotes the association of PR with DNA													
CC(=O)[C@H]1CC[C@H]2[C@@H]3CCC4=CC(=O)CC[C@]4(C)[C@H]3CC[C@]12C [progesterone]		no progesterone-induced activation of the MMTV promoter by PR-A was observed	ten-fold	both PR-A and PR-B functioned as efficient activators	[…]	[…]	[…]	[…]	[…]	[…]	[…]	[…]	[…]	minimal effects on GR function
